In ChEMBL document CHEMBL5537204, “Identifying Marine-Derived Tanzawaic Acid Derivatives as Novel Inhibitors against Osteoclastogenesis and Osteoporosis via Downregulation of NF-κB and NFATc1 Activation” (J Med Chem, 2024):
Active and inactive are the calls of the source. No cut-off for these calls is given here.

Experiments:
[1] = test system: RAW264.7; assay: Inhibition of LPS-induced NF-kappaB activation in mouse RAW264.7 cells expressing luciferase gene at 20 uM preincubated with compound for 30 mins followed by LPS-induction and measured after 6 hrs by luciferase reporter gene assay; format: cell-based; details: time 6.5 hrs
[2] = test system: RAW264.7; assay: Inhibition of LPS-induced NF-kappaB activation in mouse RAW264.7 cells expressing luciferase gene preincubated with compound for 30 mins followed by LPS-induction and measured after 6 hrs by luciferase reporter gene assay; format: cell-based; details: dose 20.0 µM, time 6.5 hrs
[3] = test system: BMMC; assay: Anti-osteoporosis activity in C57BL/6 mouse BMMC cells assessed as reduction in RANKL-induced osteoclasts formation at 10 uM incubated for 4 days in presence of MCSF by TRAP staining based assay; format: functional
[4] = Toxicity in C57BL/6 mouse assessed as abnormal behavior at 60 mg/kg, IG administered every 3 days for 46 days; format: organism-based; details: in vivo, po, 1104 h, time 46 day
[5] = Toxicity in C57BL/6 mouse assessed as animal death at 60 mg/kg, IG administered every 3 days for 46 days; format: organism-based; details: in vivo, po, 1104 h, time 46 day
[6] = test system: Mus musculus; assay: Anti-osteoporosis activity in OVX-induced osteoporosis C57BL/6 mouse model assessed as increase in BV/TV in femur at 60 mg/kg, IG administered every 3 days for 8 weeks; format: functional, organism-based
[7] = test system: Mus musculus; assay: Anti-osteoporosis activity in OVX-induced osteoporosis C57BL/6 mouse model assessed as increase in connectivity density in femur at 60 mg/kg, IG administered every 3 days for 8 weeks; format: functional, organism-based
[8] = test system: Mus musculus; assay: Anti-osteoporosis activity in OVX-induced osteoporosis C57BL/6 mouse model assessed as prevention of bone loss in femur at 60 mg/kg, IG administered every 3 days for 8 weeks; format: functional, organism-based
[9] = test system: RAW264.7; assay: Inhibition of RANKL-induced NF-kappaB activation in mouse RAW264.7 cells expressing luciferase gene assessed as reduction in p65 protein level in nucleus preincubated with compound for 4 hrs followed by LPS-induction and measured after 6 hrs by Western blot analysis; format: cell-based; details: dose 1-10 µM, time 10.0 hrs
[10] = test system: BMMC; assay: Anti-osteoclastogenesis activity in C57BL/6 mouse BMMC cells assessed as reduction in RANKL-induced osteoclasts formation at 5 uM incubated for 4 days in presence of MCSF by TRAP staining based assay; format: functional; design: scale not given: the % may be the effect or the level left; details: time 4 day
[11] = test system: RAW264.7; assay: Inhibition of RANKL-induced NF-kappaB activation in mouse RAW264.7 cells expressing luciferase gene assessed as suppression of IkappaBalpha degradation at 1 to 10 uM preincubated with compound for 4 hrs followed by LPS-induction and measured after 6 hrs by Western blot analysis; format: cell-based; details: dose 1-10 µM, time 10.0 hrs
[12] = biological target: Transcription factor p65 (Mus musculus, UniProt Q04207); assay: Binding affinity to NF-kappaB p65 in mouse RAW264.7 cells assessed as dissociation constant by SPR analysis
[13] = test system: BMMC; assay: Anti-osteoclastogenesis activity in RANKL-induced C57BL/6 mouse BMMC cells assessed as inhibition of OSCAR mRNA expression pretreated with compound for 4 hrs followed by RANKL-induction and measured after 24 hrs by RT-PCR analysis; format: functional, cell-based; details: dose 1-10 µM, time 28.0 hrs
[14] = test system: Mus musculus; assay: Anti-osteoporosis activity in OVX-induced osteoporosis C57BL/6 mouse model assessed as increase in BV/TV in femur at 5 to 10 mg/kg, IG administered every 3 days for 8 weeks; format: functional, organism-based; details: dose 5-10 mg/kg
[15] = test system: BMMC; assay: Anti-osteoclastogenesis activity in RANKL-induced C57BL/6 mouse BMMC cells assessed as inhibition of TRAP mRNA expression pretreated with compound for 4 hrs followed by RANKL-induction and measured after 24 hrs by RT-PCR analysis; format: functional, cell-based; details: dose 1-10 µM, time 28.0 hrs
[16] = test system: RAW264.7; assay: Downregulation of p65 expression in RANKL-induced mouse RAW264.7 cells expressing NFATc1 at 10 uM pretreated with compound for 4 hrs followed by RANKL-induction and measured after 24 hrs by Western blot analysis; format: functional, cell-based; details: time 28.0 hrs
[17] = test system: Mus musculus; assay: Anti-osteoporosis activity in OVX-induced osteoporosis C57BL/6 mouse model assessed as prevention of bone loss in femur at 5 to 10 mg/kg, IG administered every 3 days for 8 weeks; format: functional, organism-based; details: dose 5-10 mg/kg
[18] = test system: Mus musculus; assay: Anti-osteoporosis activity in OVX-induced osteoporosis C57BL/6 mouse model assessed as prevention of bone loss in femur at 5 to 10 mg/kg, IG administered every 3 days for 8 weeks by H and E staining based analysis; format: functional, organism-based; details: dose 5-10 mg/kg
[19] = test system: BMMC; assay: Anti-osteoclastogenesis activity in C57BL/6 mouse BMMC cells assessed as reduction in RANKL-induced osteoclasts formation incubated for 4 days in presence of MCSF by TRAP staining based assay; format: functional, cell-based; details: dose 1-10 µM, time 4.0 day
[20] = test system: Mus musculus; assay: Anti-osteoporosis activity in OVX-induced osteoporosis C57BL/6 mouse model assessed as increase in connectivity density in femur at 5 to 10 mg/kg, IG administered every 3 days for 8 weeks; format: functional, organism-based; details: dose 5-10 mg/kg
[21] = test system: Mus musculus; assay: Anti-osteoporosis activity in OVX-induced osteoporosis C57BL/6 mouse model assessed as prevention of bone loss in femur at 10 mg/kg, IG administered every 3 days for 8 weeks; format: functional, organism-based
[22] = test system: BMMC; assay: Anti-osteoclastogenesis activity in RANKL-induced C57BL/6 mouse BMMC cells assessed as inhibition of Atp6v0d2 mRNA expression pretreated with compound for 4 hrs followed by RANKL-induction and measured after 24 hrs by RT-PCR analysis; format: functional, cell-based; details: dose 1-10 µM, time 28.0 hrs
[23] = Toxicity in C57BL/6 mouse assessed as abnormal behavior at 5 to 10 mg/kg, IG administered every 3 days for 46 days; format: organism-based; details: in vivo, po, 1104 h, dose 5-10 mg/kg, time 46 day
[24] = test system: RAW264.7; assay: Inhibition of RANKL-induced NF-kappaB activation in mouse RAW264.7 cells expressing luciferase gene preincubated with compound for 4 hrs followed by LPS-induction and measured after 6 hrs by luciferase reporter gene assay; format: cell-based; details: dose 1-10 µM, time 10.0 hrs
[25] = biological target: Transcription factor p65 (Mus musculus) (UniProt Q04207); assay: Binding affinity to NF-kappaB p65 in mouse RAW264.7 cells assessed as thermal stabilization at 10 uM at 37 to 57 degreeC incubated for 4 hrs by CETSA assay; format: cell-based
[26] = test system: BMMC; assay: Cytotoxicity against mouse BMMC cells assessed as reduction in cell viability at 10 uM incubated for 4 days by MTT assay; format: toxicity, cell-based; details: 96 h, time 4 day
[27] = Toxicity in C57BL/6 mouse assessed as animal death at 5 to 10 mg/kg, IG administered every 3 days for 46 days; format: organism-based; details: in vivo, po, 1104 h, dose 5-10 mg/kg, time 46 day
[28] = test system: Mus musculus; assay: Anti-osteoporosis activity in OVX-induced osteoporosis C57BL/6 mouse model assessed as downregulation of NFATc1 expression in bone at 5 to 10 mg/kg, IG administered every 3 days for 8 weeks by IHC analysis; format: functional, organism-based; details: dose 5-10 mg/kg
[29] = test system: BMMC; assay: Anti-osteoclastogenesis activity in RANKL-induced C57BL/6 mouse BMMC cells assessed as suppression of NFATc1 expression level in nucleus at 1 to 10 uM pretreated with compound for 4 hrs followed by RANKL-induction and measured after 24 hrs by Western blot analysis; format: functional, cell-based; details: dose 1-10 µM, time 28.0 hrs
[30] = test system: Mus musculus; assay: Anti-osteoporosis activity in OVX-induced osteoporosis C57BL/6 mouse model assessed as downregulation of p65 expression in bone at 5 to 10 mg/kg, IG administered every 3 days for 8 weeks by IHC analysis; format: functional, organism-based; details: dose 5-10 mg/kg

Chain of Transcription factor p65 (Mus musculus) (Q04207 whole entry): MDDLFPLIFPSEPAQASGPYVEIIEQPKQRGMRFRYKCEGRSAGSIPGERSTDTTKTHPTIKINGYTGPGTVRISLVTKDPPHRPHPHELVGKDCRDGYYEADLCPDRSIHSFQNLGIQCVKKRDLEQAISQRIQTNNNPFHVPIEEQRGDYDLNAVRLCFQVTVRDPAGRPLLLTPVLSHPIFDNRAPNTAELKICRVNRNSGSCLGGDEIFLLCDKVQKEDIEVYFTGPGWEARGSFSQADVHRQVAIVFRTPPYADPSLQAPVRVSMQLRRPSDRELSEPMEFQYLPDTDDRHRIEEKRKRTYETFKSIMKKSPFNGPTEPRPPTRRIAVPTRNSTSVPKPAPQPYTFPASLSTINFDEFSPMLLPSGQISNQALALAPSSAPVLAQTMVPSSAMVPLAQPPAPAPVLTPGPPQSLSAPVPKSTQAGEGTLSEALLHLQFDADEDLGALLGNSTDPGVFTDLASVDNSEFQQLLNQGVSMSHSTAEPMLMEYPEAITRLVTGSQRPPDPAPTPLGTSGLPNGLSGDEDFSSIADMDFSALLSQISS
Chain of Transcription factor p65 (Q04207 whole entry): as above

Cc1ccc2c(c1/C=C/C=C/C(=O)O)[C@H](C)C[C@H](C)C2
inhibition [1]: Active

Cc1ccc2c(c1/C=C/C=C/C(=O)O)[C@H](C)C[C@H](C)[C@@H]2O
inhibition [1]: Active

CC(=O)C[C@@H](C)c1cccc(C)c1/C=C/C=C/C(=O)O
inhibition [2]: Dose-Dependent Effect

C[C@@H]1Cc2ccc(CO)c(/C=C/C=C/C(=O)O)c2[C@H](C)C1
inhibition [1]: Active

Cc1ccc2c(c1/C=C/C=C/C(=O)O)[C@H](C)C[C@@](C)(O)[C@H]2O
inhibition [1]: Active | inhibition [2]: Dose-Dependent Effect | Activity ([3]; time 4.0 day): Active

C[C@@H]1C[C@@](C)(O)C[C@@H]2C=C[C@@](C)(/C=C/C=C/C(=O)O)C(=O)[C@@H]12
inhibition [2]: Dose-Dependent Effect

C[C@H]1C[C@H]2[C@@H](O)[C@H](Cl)[C@@H](C)[C@@](O)(/C=C/C=C/C(=O)O)[C@@H]2[C@@H](C)C1
inhibition [2]: Dose-Dependent Effect | Activity ([3]; time 4.0 day): Active

CC1=C(/C=C/C=C/C(=O)O)[C@@H]2[C@H](C[C@](C)(O)C[C@H]2C)[C@@H](O)[C@H]1O
inhibition [2]: Dose-Dependent Effect

C[C@@H]1[C@@H](Cl)[C@H](O)[C@@H]2C[C@H](CO)C[C@H](C)[C@H]2[C@@H]1/C=C/C=C/C(=O)O
inhibition [2]: Dose-Dependent Effect | Activity ([3]; time 4.0 day): Active

C[C@@H]1[C@@H](Cl)[C@H](O)[C@@H]2C[C@@](C)(O)C[C@H](C)[C@H]2[C@]1(O)/C=C/C=C/C(=O)O
inhibition [2]: Dose-Dependent Effect

Cc1ccc2c(c1/C=C/C=C/C(=O)O)[C@H](C)C[C@H](CO)C2
inhibition [1]: Active

CC(=O)OC[C@@H](C)C[C@@H](C)c1cccc(C)c1/C=C/C=C/C(=O)O
inhibition [2]: Dose-Dependent Effect | Activity ([3]; time 4.0 day): Active

Cc1ccc2c(c1/C=C/C=C/C(=O)O)[C@H](C)C[C@H](C)[C@H]2O
inhibition [1]: Active

C[C@@H]1C[C@@H]2[C@@H](C(=O)O)[C@H](C)[C@](O)(/C=C/C=C/C(=O)O)[C@H]2[C@H](C)C1
inhibition [2]: Dose-Dependent Effect

C[C@]12CC[C@@H]3c4ccc(O)cc4CC[C@H]3[C@@H]1CC[C@@H]2O [ESTRADIOL]
Activity [4]: Non-Toxic | Activity [5]: Non-Toxic | Activity [6]: Active | Activity [7]: Active | Activity [8]: Active

C[C@@H]1C[C@@](C)(O)C[C@@H]2C=C[C@H](C)[C@H](/C=C/C(=O)O)[C@@H]12
inhibition [2]: Dose-Dependent Effect

C[C@@H]1C[C@@](C)(O)C[C@@H]2C=C[C@H](C)[C@](O)(/C=C/C=C/C(=O)O)[C@@H]12
inhibition [2]: Dose-Dependent Effect | Activity ([3]; time 4.0 day): Active

C[C@@H]1[C@@H](O)[C@H](O)[C@@H]2C[C@H](CO)C[C@H](C)[C@H]2[C@]1(O)/C=C/C=C/C(=O)O
inhibition [2]: Dose-Dependent Effect

Cc1ccc2c(c1/C=C/C=C/C(=O)O)[C@H](C)C[C@@](C)(O)C2
inhibition [1]: Active | inhibition [2]: Dose-Dependent Effect

CO[C@H]1C=C(C)[C@H](/C=C/C=C/C(=O)O)[C@@H]2[C@@H]1C[C@@H](CO)C[C@H]2C
inhibition [2]: Dose-Dependent Effect

CC(=O)OC[C@@H]1Cc2ccc(C)c(/C=C/C=C/C(=O)O)c2[C@H](C)C1
inhibition [1]: Active

CC1=C(/C=C/C=C/C(=O)O)[C@H]2[C@H](C=C1)C[C@H](C)C[C@@H]2C
inhibition [2]: Dose-Dependent Effect

C[C@@H]1C[C@@](C)(O)C[C@@H]2C=C[C@H](C)[C@H](/C=C/C=C/C(=O)O)[C@@H]12
inhibition [2]: Dose-Dependent Effect

Cc1cccc([C@H](C)C[C@H](C)CO)c1/C=C/C=C/C(=O)O
inhibition [9]: Dose-Dependent Effect | Activity [10]: 49.2% | inhibition [11]: Active | Kd [12]: 44.7 µM | Activity [13]: Dose-Dependent Effect | Activity [14]: Active | Activity [15]: Dose-Dependent Effect | Activity [16]: Active | Activity [17]: Active | Activity [18]: Active | inhibition [2]: Dose-Dependent Effect | Activity [19]: Dose-Dependent Effect | Activity [20]: Active | Activity [21]: Active | Activity [22]: Dose-Dependent Effect | Activity [23]: Non-Toxic | inhibition [24]: Dose-Dependent Effect | Activity [25]: Active | Activity [26]: Non-Toxic | Activity [27]: Non-Toxic | Activity [28]: Active | Activity ([3]; time 4 day): 69.7% | Activity [29]: Active | Activity [30]: Active

C[C@@H]1C[C@](O)(CO)C[C@@H]2C=C[C@H](C)[C@H](/C=C/C=C/C(=O)O)[C@@H]12
inhibition [2]: Dose-Dependent Effect

CC1=CC(=O)[C@H]2C[C@@H](C)C[C@@H](C)[C@@H]2[C@]1(O)/C=C/C=C/C(=O)O
inhibition [2]: Dose-Dependent Effect

CC(=O)OC[C@H]1C[C@@H](C)[C@H]2[C@@H](C=C[C@H](C)[C@]2(O)/C=C/C=C/C(=O)O)C1
inhibition [2]: Dose-Dependent Effect

CC(=O)OCc1ccc2c(c1/C=C/C=C/C(=O)O)[C@H](C)C[C@H](C)C2
inhibition [1]: Active
